Legend:
[1] = test system: Hairless albino Sh:HR-1 mice; experiment: Contact hypersensitivity (CHS) reaction to oxazolone after UV irradiation, Example 2; assay type: in vivo, mouse; details: for % Suppression of CHS: UV-irradiated vs non-UV group, lotion 20 μM compound (glucan 10% w/w in lotion B; clover extract 0.5% w/w), topical after each daily UV; for prevention/amelioration of UV induced immunosuppression (in words): topical lotion after UV, CHS model
Description: O'Dell et al (1980 Arch. Dermatol, 116, 559-561) have shown that sun-exposed skin areas on humans are immunologically impaired according to non-exposed skin. A standard model for testing immunosuppression, that is a model with reference to human immunosuppression, is the hairless mouse. A standard test in the hairless mouse model is the contact hypersensitivity (CHS) reaction to an immune irritant such as oxazolone (Asherson and Ptak, Immunology, (1968) 15:405-416). The compound oxazolone induces a vigorous immune response in the hairless mouse which may be measured by ear swelling. Immune suppression by UV light or other agents can be readily tested in the model. See for example Kondo, S, McKenzie, R. C., Sauder, D. N., J. Invest. Dermatol., 103:811-814; Reeve et al, Cancer Letts., 108:271-279 (1996); and Reeve et al, J. Invest. Dermatol., 103:801-806 (1994). As will be shown in the non-limiting examples which follow, compositions comprising compounds of the Formula (I) were active in the treatment/prevention/amelioration of UV induced immunosuppression in the hairless mouse model, which as discussed above is directly referable to the situation in human skin, for example, Yoshikawa et al, J. Invest. Dermatol., 95:530-536, (1990).
The CHS reaction in mice is a standard model for immunosuppression and is a representative model for human immunosuppression (Yoshikawa et al, Invest. Dermatol., 95:530-536 (1990)).
(§1) The CHS reaction was carried out according to the protocol of Reeve et al, Immunology, 78:99-104 (1993). Hairless albino Sh:HR-1 mice were divided into two treatment groups. The first treatment group designated group 1 was not subject to UV irradiation, and received either 0.2 ml of test lotion “A” or test lotion ‘B’ painted on to the dorsal skin on four consecutive days (that is, 4 μmol/mouse, or approximately 0.1 μmol/cm^2). The second treatment group, group 2, were UV irradiated with a minimal erythemal dose of UV light which simulates the toxic effect of sunlight on the skin. After each daily UV treatment 0.2 ml of treatment solution was applied to the dorsal skin as for treatment group 1. Mid-dorsal skinfold thickness was measured every twenty four hours to indicate erythema oedema. CHS to oxazolone was induced on abdominal skin seven days after the first treatment followed by challenge on the ears on day 15, and average ear swelling was determined as a measure of immune response.
Genistein, daidzein, equol, tetrahydrodaidzein, ODMA, dehydroequol and clover extract were tested in this experiment in test lotion “A”. Equol, genistein and clover extract were also tested in tes lotion ‘B’. The results expressed below are given as a percentage of suppression of CHS measured with reference to the non-UV exposed treatment group 1, which is induced by UV exposure.

[2] = test system: Hairless albino Sh:HR-1 mice; experiment: Mid-dorsal skinfold thickness (erythema/oedema) after UV irradiation, Example 2; assay type: in vivo, mouse; details: for average skin fold increase / negative average skin fold increase: seven days after treatment; for average skin fold increase: one unit = 0.001 in, test lotion A; for erythema/oedema (in words): measured at day four and day seven; for negative average skin fold increase: given as a negative increase, substantially no increase in skin fold thickness
Experimental: as §1
Erythema/oedema was measured at day four and day seven of the treatment groups. […] For example, at seven days after treatment for base lotion “A” average skin fold thickness was six units (that is 0.006 in), for the daidzein containing lotion average skin fold increase was seven units, and for tetrahydrodaidzein average skin fold thickness was five units. In contrast, for equol, genistein, dehydroequol and ODMA there was a negative average skin fold increase of approximately 0.2, which corresponds to substantially no increase in skin fold thickness.

[3] = test system: Hairless albino Sh:HR-1 mice; experiment: CHS reaction to oxazolone after UVB irradiation, equol/glucan lotions, Example 4; assay type: in vivo, mouse; details: for % Suppression of CHS: 1 MED (UVB) for 3 days, equol 2.5 uM, glucan 20% in base lotion, ears measured day 15; for decreasing percentage suppression of hypersensitivity and skin fold thickness (in words): compared to the control groups
Experimental: The CHS reaction was carried out as in Example 2. Hairless albino Sh:HR-1 mice were divided into eight treatment groups as shown: • 1. base lotion+MED (UVB) for […] • 2. glucan (20%) in base lotion+1 MED (UVB) for 3 days • 3. Equol (2.5 uM) in base lotion+1 MED (UVB) for 3 days • 4. Equol (2.5 uM)+glucan (20%) in base lotion+1 MED (UVB) for 3 days • 5. base lotion and no irradiation for three days (Control) • 6. glucan (20%) in base lotion and no irradiation for three days (Control) • 7. Equol (2.5 uM) in base lotion and no irradiation for three days (Control) • 8. Equol (2.5 uM)+glucan (20%) in base lotion and no irradiation for three days (Control)
On days 7 and 8 the mice were sensitised with 2% oxazolone in alcohol (100 ul/mouse). On day 14, the ears were challenged with 2% oxazolone (20 ul/mouse). On day 15, the ears were measured for skin fold thickness and suppression of […] hypersensitivity.

[4] = test system: Human subjects; experiment: Erythema intensity at UV-irradiated skin sites on the back, post-UV topical lotion, Example 3; assay type: in vivo; details: UV + lotion with 100 μM equol
Experimental: Tests were performed at the Australian Photobiology Testing Facility at the University of Sydney. Human subjects were tested in a controlled solarium. A grid was established using reference coordinate points on the back of each subject, thereby providing a series of treatment sites on the back of each patient where the erythema-reducing potential of compositions according to the invention could be tested.
Compounds of the Formula (I) were dissolved in DMSO and incorporated into base lotion “A” to contain 100 μM of active ingredient, and 0.5% DMSO.
Topical applications were made to the back of the patient within the treatment grid which was established to provide a series of sites for UV irradiation, and subsequent application of compositions. Topical application consisted of 2 mg/cm^2 lotion applied firmly, followed by a second 2 mg/cm^2 applied but not rubbed in. Each topical treatment was therefore 0.4 nmols/cm^2 compound in the Formula (I).
The treatment procedure was as follows. On the first day of treatment a minimum erythemal dose of UV (MED) was established for each subject, this being the minimum degree of UV light which on visual determination produces a reddening of the skin. […] The first treatment day was a Monday. Subsequent treatments were as follows:
Expose 3×3 skin sites to 0.75 MED UV.
Immediately, at four hours and at six hours post-UV, • 1 apply nil to three sites • 2 apply topical base lotion to three sites • 3 apply topical equol lotion to three sites according to technique above. Wednesday
Assess erythema (none visible as expected).
Re-expose same 3×3 skin sites to 0.75 MED UV.
Immediately, at four hours and at six hours post-UV, apply topical lotions as above.
Assess erythema visually by ranking the colour intensity of the 3×3 skin sites.
Re-expose same 3×3 skin sites to one MED UV.
Topical applications as before

O=c1c(-c2ccc(O)cc2)coc2cc(O)ccc12 [Daidzein, daidzein]
% Suppression of CHS ([1]; 18 hours of ear challenge): 27%
% Suppression of CHS ([1]; 21 hours of ear challenge): 37%
prevention/amelioration of UV induced immunosuppression (in words) [1]: did not ameliorate
average skin fold increase [2]: seven

Oc1ccc([C@H]2COc3cc(O)ccc3C2)cc1 [Equol, equol]
% Suppression of CHS [3]: 6%
decreasing percentage suppression of hypersensitivity and skin fold thickness (in words) [3]: effective
% Suppression of CHS ([1]; 18 hours of ear challenge): 12%
% Suppression of CHS ([1]; 21 hours of ear challenge): 5%
prevention/amelioration of UV induced immunosuppression (in words) [1]: significant activity
Average erythema intensity (n = 3) ([4]; 48 hours, 0.4 nmols/cm^2 per application): 0.21
Average erythema intensity (n = 3) ([4]; 52 hours): 0.21
Average erythema intensity (n = 3) ([4]; 55.5 hours): 0.67
Average erythema intensity (n = 3) ([4]; 71 hours): 0.67
Average erythema intensity (n = 3) ([4]; 75 hours): 0.38
Average erythema intensity (n = 3) ([4]; 77 hours): 0.54
erythema/oedema (in words) [2]: suppressed erythema/oedema
negative average skin fold increase [2]: approximately 0.2

O=c1c(-c2ccc(O)cc2)coc2cc(O)cc(O)c12 [Genistein, genistein]
% Suppression of CHS ([1]; 18 hours of ear challenge): 14%
% Suppression of CHS ([1]; 21 hours of ear challenge): 13%
prevention/amelioration of UV induced immunosuppression (in words) [1]: significant activity
erythema/oedema (in words) [2]: suppressed erythema/oedema
negative average skin fold increase [2]: approximately 0.2

CC(C(=O)c1ccc(O)cc1O)c1ccc(O)cc1 (stereo not drawn) [ODMA, O-desmethyl-angolensin]
negative average skin fold increase [2]: approximately 0.2

Oc1ccc(C2=Cc3ccc(O)cc3OC2)cc1 [dehydroequol]
% Suppression of CHS ([1]; 18 hours of ear challenge): 10%
% Suppression of CHS ([1]; 21 hours of ear challenge): 4%
prevention/amelioration of UV induced immunosuppression (in words) [1]: significant activity
negative average skin fold increase [2]: approximately 0.2

Oc1ccc(C2COc3cc(O)ccc3C2O)cc1 (stereo not drawn) [tetrahydrodaidzein]
% Suppression of CHS ([1]; 18 hours of ear challenge): 33%
% Suppression of CHS ([1]; 21 hours of ear challenge): 31%
prevention/amelioration of UV induced immunosuppression (in words) [1]: did not ameliorate
average skin fold increase [2]: five

β-(1,3)(1,6)-glucan [Glucan only]
% Suppression of CHS [3]: 4.5%
decreasing percentage suppression of hypersensitivity and skin fold thickness (in words) [3]: effective

From patent publication US20050036962A1, “Compositions and method for protecting skin from UV induced immunosuppression and skin damage” (Novogen Research Pty. Ltd., priority 1997, published 2005)
